Data taken from publication PMC12401824, “Studies on the impact of modifications at the Gln-Trp site in RM2-based GRPR ligands” (EJNMMI Research, 2025).
Like-named read-outs stand apart in the source and are kept apart here. Starred links: 1 amine or outer side, 2 acyl side, 3 side chain; linkers in the order of their positions; H or OH if unused. Non-standard residues stand in square brackets, D forms with d. Residues, ends and D or L forms follow the SMILES beside them. *: point of attachment. DOTA = O=C(O)CN1CCN(CC(=O)O)CCN(CC(=O)*)CCN(CC(=O)O)CC1; Sta = CC(C)C[C@H](N)[C@@H](O)CC(=O)O; Bta = N[C@@H](Cc1csc2ccccc12)C(=O)O; X1 = O=C(CN1CCC(N[*:1])CC1)[*:2]; hSer = N[C@@H](CCO)C(=O)O

Key:
[1] = test system: PC-3 tumor xenograft; assay: Biodistribution in PC-3 tumor-bearing CB17-SCID mice; assay type: in vivo; conditions: ^68Ga-labeled; 1 h p.i.; n = 4
Description: (§1) To establish tumor xenografts, PC-3 cells (5.0 × 10^6 cells per 200 µL) were suspended in a 1/1 mixture (v/v) of Dulbecco’s modified eagle's medium/Ham’s F-12 with Glutamax-I (v/v = 1/1) and Cultrex® Basement Membrane Matrix Type 3 (Trevigen Inc., Gaithersburg, MD, USA) and inoculated subcutaneously onto the right shoulder of CB17-SCID mice (Charles River Laboratories International Inc., Sulzfeld, Germany). Mice (n = 4) were used for experiments when tumor volume has reached 125–500 mm^3 (2–3 weeks after inoculation).
(§2) Biodistribution. […] (n = 4), respectively. Selected organs were removed, weighted and measured in a γ-counter.

[2] = as above; assay type: in vivo; conditions: mouse, 100 pmol, ^68Ga-labeled, 1 h p.i., n = 4; for tissue to tissue ratio at 1 h: CB17-SCID, iv, total radioactivity; for tissue uptake at 1 h: intravenous
Description: as §1, §2

[3] = tumor and blood, read-out: Tumor-to-Blood ratio
[4] = tumor and bone, read-out: Tumor-to-Bone ratio
[5] = tumor and heart, read-out: Tumor-to-Heart ratio
[6] = tumor and intestine, read-out: Tumor-to-Intestine ratio
[7] = tumor and kidney, read-out: Tumor-to-Kidney ratio
[8] = tumor and liver, read-out: Tumor-to-Liver ratio
[9] = tumor and lung, read-out: Tumor-to-Lung ratio
[10] = tumor and muscle, read-out: Tumor-to-Muscle ratio
[11] = tumor and pancreas, read-out: Tumor-to-Pancreas ratio
[12] = tumor and spleen, read-out: Tumor-to-Spleen ratio
[13] = tumor and stomach, read-out: Tumor-to-Stomach ratio
[14] = adrenal, read-out: Uptake in Adrenal
[15] = blood, read-out: Uptake in Blood
[16] = heart, read-out: Uptake in Heart
[17] = intestine, read-out: Uptake in Intestine
[18] = kidney, read-out: Uptake in Kidney
[19] = liver, read-out: Uptake in Liver
[20] = muscle, read-out: Uptake in Muscle
[21] = pancreas, read-out: Uptake in Pancreas
[22] = spleen, read-out: Uptake in Spleen
[23] = stomach, read-out: Uptake in Stomach
[24] = tumor, read-out: Uptake in Tumor

## CC(C)C[C@H](NC(=O)C[C@H](O)[C@H](CC(C)C)NC(=O)[C@H](Cc1c[nH]cn1)NC(=O)CNC(=O)[C@@H](NC(=O)[C@H](C)NC(=O)[C@H](Cc1csc2ccccc12)NC(=O)[C@H](CCC(N)=O)NC(=O)[C@@H](Cc1ccccc1)NC(=O)CN1CCC(NC(=O)CN2CCN(CC(=O)O)CCN(CC(=O)O)CCN(CC(=O)O)CC2)CC1)C(C)C)C(N)=O [[^68Ga]Ga-[Bta^8]RM2, metal not drawn] ({DOTA}-[X1][dF]Q[Bta]AVGH[Sta]L-NH2)
[1]
  Tumor-to-Adrenal ratio: 13.3 ± 17.2
[2]; [3]
  tissue to tissue ratio at 1 h: 7.6 ± 2.6
[2]; [4]
  tissue to tissue ratio at 1 h: 29.5 ± 8.2
[2]; [5]
  tissue to tissue ratio at 1 h: 19.8 ± 5
[2]; [6]
  tissue to tissue ratio at 1 h: 12.2 ± 4.5
[2]; [7]
  tissue to tissue ratio at 1 h: 3.3 ± 0.6
[2]; [8]
  tissue to tissue ratio at 1 h: 10.7 ± 2.3
[2]; [9]
  tissue to tissue ratio at 1 h: 8.8 ± 3
[2]; [10]
  tissue to tissue ratio at 1 h: 50.6 ± 19.4
[2]; [11]
  tissue to tissue ratio at 1 h: 1.9 ± 1.3
[2]; [12]
  tissue to tissue ratio at 1 h: 18.7 ± 6.9
[2]; [13]
  tissue to tissue ratio at 1 h: 7.1 ± 0.7
[2]; [14]
  tissue uptake at 1 h: 1.95 ± 1.3 %ID/g
[2]; [15]
  tissue uptake at 1 h: 1.07 ± 0.27 %ID/g
[2]; bone, read-out: Uptake in Bone
  tissue uptake at 1 h: 0.3 ± 0.15 %ID/g
[2]; [16]
  tissue uptake at 1 h: 0.4 ± 0.1 %ID/g
[2]; [17]
  tissue uptake at 1 h: 0.66 ± 0.14 %ID/g
[2]; [18]
  tissue uptake at 1 h: 2.33 ± 0.25 %ID/g
[2]; [19]
  tissue uptake at 1 h: 0.73 ± 0.17 %ID/g
[2]; lung, read-out: Uptake in Lung
  tissue uptake at 1 h: 0.92 ± 0.22 %ID/g
[2]; [20]
  tissue uptake at 1 h: 0.19 ± 0.11 %ID/g
[2]; [21]
  tissue uptake at 1 h: < 8 %ID/g
[2]; [22]
  tissue uptake at 1 h: 0.46 ± 0.16 %ID/g
[2]; [23]
  tissue uptake at 1 h: 1.07 ± 0.14 %ID/g
[2]; [24]
  tissue uptake at 1 h: ~7.5 %ID/g

## CC(C)C[C@H](NC(=O)C[C@H](O)[C@H](CC(C)C)NC(=O)[C@H](Cc1c[nH]cn1)NC(=O)CNC(=O)[C@@H](NC(=O)[C@H](C)NC(=O)[C@H](Cc1c[nH]c2ccccc12)NC(=O)[C@H](CCO)NC(=O)[C@@H](Cc1ccccc1)NC(=O)CN1CCC(NC(=O)CN2CCN(CC(=O)O)CCN(CC(=O)O)CCN(CC(=O)O)CC2)CC1)C(C)C)C(N)=O [[^68Ga]Ga-[Hse^7]RM2, metal not drawn] ({DOTA}-[X1][dF][hSer]WAVGH[Sta]L-NH2)
[1]
  Tumor-to-Adrenal ratio: 1.4 ± 1.1
[2]; [3]
  tissue to tissue ratio at 1 h: 1.9 ± 0.1
[2]; [4]
  tissue to tissue ratio at 1 h: 7.8 ± 0.7
[2]; [5]
  tissue to tissue ratio at 1 h: 6 ± 0.9
[2]; [6]
  tissue to tissue ratio at 1 h: 5 ± 0.3
[2]; [7]
  tissue to tissue ratio at 1 h: 2.2 ± 0.2
[2]; [8]
  tissue to tissue ratio at 1 h: 5.1 ± 0.5
[2]; [9]
  tissue to tissue ratio at 1 h: 3.3 ± 0.6
[2]; [10]
  tissue to tissue ratio at 1 h: 22.8 ± 3.4
[2]; [11]
  tissue to tissue ratio at 1 h: 0.9 ± 0.1
[2]; [12]
  tissue to tissue ratio at 1 h: 5 ± 0.7
[2]; [13]
  tissue to tissue ratio at 1 h: 4.1 ± 0.3
[2]; [14]
  tissue uptake at 1 h: 2.47 ± 0.3 %ID/g
[2]; [15]
  tissue uptake at 1 h: 3.92 ± 0.07 %ID/g
[2]; bone, read-out: Uptake in Bone
  tissue uptake at 1 h: 0.98 ± 0.12 %ID/g
[2]; [16]
  tissue uptake at 1 h: 1.29 ± 0.14 %ID/g
[2]; [17]
  tissue uptake at 1 h: 1.52 ± 0.1 %ID/g
[2]; [18]
  tissue uptake at 1 h: 3.51 ± 0.2 %ID/g
[2]; [19]
  tissue uptake at 1 h: 1.49 ± 0.06 %ID/g
[2]; lung, read-out: Uptake in Lung
  tissue uptake at 1 h: 2.33 ± 0.28 %ID/g
[2]; [20]
  tissue uptake at 1 h: 0.34 ± 0.04 %ID/g
[2]; [21]
  tissue uptake at 1 h: < 8 %ID/g
[2]; [22]
  tissue uptake at 1 h: 1.55 ± 0.15 %ID/g
[2]; [23]
  tissue uptake at 1 h: 1.88 ± 0.06 %ID/g
[2]; [24]
  tissue uptake at 1 h: ~7.5 %ID/g
